In patent publication US11579149B2, “Hippo pathway bioluminescent biosensor” (Queen's University at Kingston, priority 2017, dated 2023):

Experiments:
LATS kinase activity [1] = experiment: LATS-BS under stimuli regulating Hippo signaling (in vitro luciferase assay and live cell luciferase imaging); assay type: cell-based, human; details: cell lysates (luciferase assay) and live cells (BLI)
Procedure: For live cell imaging, LATS-BS or a pGL3-control vector were transfected into HEK293, MDA-MB-231 or A549 cells. After 48 hours, cells were trypsinized and collected in a black, clear bottomed, 96-well plate. 150 μg/mL D-luciferin (D-Luciferin, Potassium Salt, GoldBio #LUCK-250) in media was added to each well 5-10 min before imaging. Exposure time for images was approximately 3 min/plate. Imaging was performed using a LightTools Research system (Synopsys, Ltd., Mountain View, Calif., USA) dark box and a Hamamatsu ORCA-Flash4.0 V2 digital CMOS camera over the course of 20 minutes to establish optimal peak luciferase activity. The bioluminescence of the regions of interest was analyzed for total emission flux using Image-Pro® Plus software (Media Cybernetics, Inc., Rockville, Md., USA).
Experiments were conducted to further validate the LATS intermolecular biosensor and explore potential applications for its use. The LATS-BS responded to numerous signals reported to modulate Hippo pathway activity, including cell confluency, drugs activating Hippo signaling (Forskolin, PI3K inhibitor, PDK inhibitor, F-IBMX, and 2-deoxy-glucose) and Hippo signaling inhibitors (LPA, EGF, Insulin, S1P, and TPA). The LATS-BS is activated by LATS in various cell lines (e.g., A549, MDA-MB231).
The following compound treatments were used for in vitro luciferase assay and live cells imaging: RAF inhibitor (GW5054, Cayman Chemical, Ann Arbor, Mich., USA), ATR inhibitor (CGK733, Cayman Chemical), PI3K inhibitor 1 (GDC0941, Cayman Chemical), PI3K inhibitor 2 (LY294002, Cayman Chemical), PDK inhibitor (GSK2334470, Cayman Chemical)—10 μM for 4 hours; EGF-100 ng/mL for 1 hour; insulin (Sigma #91077C)—10 μg/ml for 1 hour, F/IBMX (Forskolin, Cayman Chemical/IBMX, Cayman Chemical)—0.1-10 μM for Forskolin and 100 μM for IBMX for 1 hour; L-α-lysophosphatidic acid (LPA) (Sigma #L7260)—0.1-10 μM for 1 hour, sphingosine1-phosphophate (S1P)—1 μM for 1 hour; 12-O-tetradecanoylphorbol-13-acetate (TPA) (#41745; Cell Signaling Technology, Inc., Danvers, Mass., USA)—5 nM for 1 hour; 2-deoxy glucose (#D8375, Sigma-Aldrich Canada Co., Oakville, Ontario, Canada)—25 mM for 1 hour.

LATS kinase activity [2] = experiment: LATS-BS validation in transfected HEK293 cells (luciferase assay / western blot); assay type: cell-based, human; details: HEK293 co-transfected with LATS-BS and MST2, 10 μM LPA for 1 hour before collection
Procedure: In a validation study, LATS-BS was transfected alone or together with LATS2 or/and MST2 into HEK293 cells and biosensor activity or NLuc-YAP15-S127 phosphorylation status were determined 48 hours after transfection by luciferase assay or western blot, respectively. As depicted in FIG. 2C, HEK293 cells transfected with LATS-BS alone had low luciferase activity and this was correlated with a low degree of Nluc-YAP15-S127 phosphorylation. Co-transfection of LATS-BS with MST2 was associated with increases in both Nluc-YAP-S127 phosphorylation and luciferase activity, and this effect was suppressed with lysophosphatidic acid (LPA), an inhibitor of the Hippo pathway. For lysophosphatidic acid (LPA) treatment, cells were stimulated with 10 μM LPA for 1 hour before collection (n=3). LATS-BS co-expression with both MST2 and LATS2 was correlated with further increases in Nluc-YAP15-S127 phosphorylation and luciferase activity. Collectively, these observations are consistent with a model where MST2 activates LATS2, which phosphorylates Nluc-YAP15-S127, leading to binding with Cluc-14-3-3 and reconstitution of active luciferase.

Row | Molecule | LATS-BS response to signals modulating Hippo pathway activity (LATS kinase activity [1]) | Nluc-YAP-S127 phosphorylation (western blot) (LATS kinase activity [2]) | LATS-BS luciferase activity (LATS kinase activity [2]; n=3)
1 | CCCCCCCCCCCCCC(=O)O[C@@H]1[C@@H](C)[C@@]2(O)[C@@H](C=C(CO)C[C@]3(O)C(=O)C(C)=C[C@@H]23)[C@@H]2C(C)(C)[C@]12OC(C)=O [TPA, 12-O-tetradecanoylphorbol-13-acetate] | responded | – | –
2 | CNc1nc(-c2ccc3c(N)n[nH]c3c2)cc(N2C[C@@H](C(=O)NC3CCCCC3)CC[C@H]2C)n1 [PDK inhibitor] | responded | – | –
3 | EGF: Hippo signaling inhibitor | responded | – | –
4 | CCCCCCCCCCCCC/C=C/[C@@H](O)[C@@H](N)COP(=O)(O)O [S1P, sphingosine1-phosphophate] | responded | – | –
5 | O=CC[C@@H](O)[C@H](O)[C@H](O)CO [2-deoxy-glucose, 2-deoxy glucose] | responded | – | –
6 | L-α-lysophosphatidic acid [LPA] | responded | suppressed | suppressed
7 | Insulin: Hippo signaling inhibitor (Sigma #91077C) | responded | – | –
